Results as given in patent US7470821B2, “Aldolase-inhibiting aromatic compounds” (Valorisation-Recherche, Limited Partnership, priority 2003, dated 2008).
Read-outs that look alike come from different tables or passages of the source. Values belong to the compound of their own block, whether it stands above or below them.

Legend:
rabbit muscle aldolase = target: T1, rabbit muscle aldolase (Oryctolagus cuniculus, UniProt P00883); details: cited from earlier work; for Ki: Blonski et al., 1997
T1 sequence (P00883 1-364): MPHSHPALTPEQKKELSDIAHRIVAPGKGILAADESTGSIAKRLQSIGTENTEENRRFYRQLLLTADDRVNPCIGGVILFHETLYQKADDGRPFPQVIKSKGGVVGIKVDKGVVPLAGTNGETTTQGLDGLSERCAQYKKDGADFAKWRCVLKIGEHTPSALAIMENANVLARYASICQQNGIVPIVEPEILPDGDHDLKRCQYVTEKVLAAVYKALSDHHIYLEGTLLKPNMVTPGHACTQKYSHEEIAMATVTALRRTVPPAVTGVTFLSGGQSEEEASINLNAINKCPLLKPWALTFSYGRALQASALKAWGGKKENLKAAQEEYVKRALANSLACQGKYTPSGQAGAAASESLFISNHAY

[1] = target: T2, native aldolase from rabbit muscle (RM) (Oryctolagus cuniculus, UniProt P00883); test: Aldolase activity by coupled enzyme test (TIM/GDH), inactivation and reactivation kinetics; assay type: biochemical
T2 construct: made in house
T2 sequence (P00883 1-364): T1 sequence (P00883 1-364)
Protocol: Aldolase activity was measured using a coupled enzyme test system: the triose-phosphate isomerase and glycerol-3-phosphate deshydrogenase (TIM/GDH) system, following oxidation of the NADH (Boehringer-Mannheim, France) at 340 nm, by means of a SAFAS spectrophotometer preheated to 25° C. Testing began with the addition of the substrate (Fru(1.6)P2; […] in final concentration), to complete an aldolase solution created in a triethanolamine buffer (TEA buffer) (100 Mm TEA/HCl; 50 mM NaCl; 1 mM EDTA, pH 7.6; ionic strength 0.15), 0.42 mM of NADH, and containing both enzyme systems (10 μg/mL of GDH and 1 μg/mL of TIM) for a final volume of 1 mL. The construction, overexpression and purification of recombinant aldolase were carried out in accordance with Morris A. J. et al., 1993 (J. Biol. Chem., 265:1095-1100) and Berthiaume L. et al., 1993 (J. Biol. Chem., 268:10826-10835).
The substrate cleavage rate was determined by measuring the decrease in absorbance/minute at 340 nm. The aldolase was dialyzed overnight at 4° C. against a TEA buffer prior to use. The protein concentration was determined by spectrophotometry, using ε280=0.91 mL.mg^−1.cm^−1 as an extinction coefficient. Subunit concentration was determined on the basis of a molecular weight of 159,000 for an aldolase tetramer. • Kinetic Method:
In the extreme situation where k−2 approaches zero, a reversible slow-binding inhibitor may resemble an irreversible one directed toward the active site. In this situation, the equation eqn.(3) is used for this type of inhibition (Meloche H. P., 1967, Biochemistry, 6:2273-2280). The semi-inactivation time of the enzyme (t1/2) is defined as a function of the mutual inhibitor concentration and is graphically represented by a straight line crossing the Y-axis at […] and crossing the X-axis at −1/Ki. • Experimental Protocol:
Native aldolase (5 μM of subunits) is incubated in the presence of FHN-P (0.05-1 mM) in TEA buffer. Enzyme activity is analyzed as a function of time using 10 μl aliquot portions.
Inactivation kinetics follow pseudo-first-order kinetics, and kinetic parameters Ki and k2 are determined by using the equation eqn.(3). To determine the reactivation rate, aldolase (25 μM of subunits in the TEA buffer) is incubated with 500 μM of FHN-P until reaching 90% inactivation. Excess inhibitor is removed by ultrafiltration with a PM-30 Millipore membrane. The enzyme-inhibitor complex is incubated in the TEA buffer (15 μM of subunits at final concentration) containing hexitol-P2 (10 mM). Aliquot portions (10 μl) are removed at different times to measure aldolase activity.
Controls involve repeating the protocol without FHN-P. The reactivation process is analyzed as if it were a first-order reaction. • Monitored by UV-Visible Differential Spectroscopy.

[2] = rabbit muscle aldolase, read-out: dissociation constant (or inhibition constant) Ki

SMILES: O=Cc1ccc(OP(=O)(O)O)cc1O [2-hydroxybenzaldehyde-4-phosphate]
reduction of aldolase activity (rabbit muscle aldolase; inhibitor concentration of around 200 μM): 80% | Ki (rabbit muscle aldolase; reversible time-dependent inhibitor, read-out: global inhibition constant Ki*): 35 ± 5 µM

aldolase inactivation (in words) ([1]; 250 μM, same conditions as Table 1): totally inactive | Specific activity ([1]; RM 0.2 mg/mL, compound 250 μM, TEA buffer pH 7.6, 80 min incubation, RM alone 12.5 ± 0.5): 12.5 ± 0.5 Unit/mg
SMILES: O=Cc1ccc2cc(O)ccc2c1O [DHNA, 1,6-dihydroxy-2-naphthaldehyde, reference compound]

SMILES: O=Cc1ccc(OP(=O)(O)O)cc1 [HBA-P, benzaldehyde-4-phosphate]
Ki (rabbit muscle aldolase; [2]): ~500 µM

SMILES: O=P(O)(O)Oc1ccc(OP(=O)(O)O)cc1 [HQN-P2]
Ki (rabbit muscle aldolase; [2]): ~135 µM

SMILES: O=P(O)(O)Oc1cccc(OP(=O)(O)O)c1 [RSN-P2]
Ki (rabbit muscle aldolase; [2]): ~50 µM
